# Results as given in publication PMC8802628, “Selective activation of PFKL suppresses the phagocytic oxidative burst” (Cell, 2021).
# Experiments:
# [1] = tested on: primary human monocytes and human monocytic THP-1 cells; assay: GSDMD-dependent pyroptosis, LDH release; assay type: cell-based; details: induced by nigericin, cytoplasmic LPS, or cytoplasmic poly(dA-dT)
# Experimental: Primary human monocytes were primed with 1 μg/mL ultrapure LPS and 1μg/mL Pam3CSK4 for 3 h. THP-1 cells were primed with 1 μg/mL Pam3CSK4 for 4 h. Primed cells (1 × 10^5) were treated for 1 h with DMSO vehicle, 5 μM LDC7559 (unless indicated otherwise), 10 μM MCC950, or 50 μM VX765, and then for 1 h with 10 μg/mL nigericin, or 25 μg/mL LPS (electroporated using the NEON electroporation system; ThermoFisher Scientific), or they were transfected over 3 h with 1 μg/mL poly(dA-dT) using lipofectamine 2000 (0.5 μL/well).
# LDH released into the culture medium was measured 1-3 h post-activation using a CellTox Green Cytotoxicity assay (Promega). IL-1β secretion was measured using a MSD Cytokine Assay, 96-well multi-array Tissue Culture Kit (Meso Scale Discovery). For immunoblotting, monocytes (2 × 10^6) were treated with 10-50 μM LCD7559 or 50 μM VX765 and electroporated with 25 μg/mL LPS using the NEON electroporation system. Cells were lysed after 1 h using lysis buffer (50 mM Tris pH 7.4, 150 mM NaCl, 10% glycerol, 1% NP-40, 1 mM MgCl and 1X Roche cOmplete protease inhibitor cocktail) and protein concentration was determined via BCA protein assay (Peirce). Antibodies for immunoblotting were GSDMD (L60, Cell Signaling Technologies), cleaved GSDMD-Asp275 (E7H9G, Cell Signaling Technologies) and GAPDH (14C10, Cell Signaling Technologies).
# [2] = biological target: T1, 14-3-3 protein theta (YWHAQ) (Homo sapiens, UniProt P27348); assay: PISA of neutrophil lysates (Data S2); assay type: binding; details: Comparison NA11_MidT-DMSO_MidT
# T1 construct: endogenous in cells; host or cells: human neutrophil lysate
# Experimental: (§1) Neutrophils (3 × 10^7) were treated with 50 nM PMA for 20 min. Cell were washed twice in D-PBS, resuspended in KB buffer (25 mM Tris-HCL pH 7.5, 1 mM DTT, 10 mM MgCl2) and frozen in liquid nitrogen. Lysates were prepared by 5-7 freeze-thaw cycles in KB buffer. Protein concentration was determined via Bradford assay and lysates were incubated on ice for 30 min with either 10 μM NA-11 or DMSO vehicle. Samples were analyzed in two formats: (1) classical thermal proteome profiling (TPP) with full melting curves using 16-plex TMT labeling (8 temperatures between 37-65°C), and (2) Proteome Integral Solubility Alteration (PISA) assay with aggregated protein abundance from a defined temperature range using 10-plex TMT labeling (Five replicates 44-58°C). Aliquots (5 mg) were divided and heated at 8 temperatures in the 37-65°C range or 6 temperatures in the 44-58°C range, and cooled on ice for 3 min.
# (§2) For TPP, heated lysates from different temperatures were kept separate. For PISA, lysates from different temperatures were combined based on treatment. Samples were centrifuged at 20,000 x g for 20 min at 4°C and supernatants were isolated for analysis. Proteins were denatured in 4 M urea, reduced with 5 mM DTT at 60°C for 20 min, and alkylated with 11 mM iodoacetamide (IAA) for 20 min. Urea was diluted to 2 M with 20 mM HEPES. Proteins were digested with Lys-C (Wako) diluted 1:50 for 3 h at 37°C, and then with Trypsin (PTMScan) diluted 1:100 overnight at 37°C. Peptides were cleaned on C18 Sep-Pak cartridges, 50 mg absorbent (Waters, WAT054960) and labeled with 16-plex TMTpro or 10-plex TMT. Labeled peptides were pooled, cleaned on a C18 Sep-Pak cartridge, and fractionated by offline high pH reversed phase separation and combined into 12 fractions in checkerboard fashion. Peptides were cleared on C18 STAGE-tips before mass spectrometry.
# (§3) For the classical TPP, quantitative data from each temperature were used to generate a thermal titration curve and calculate a melting point. PSM level quantitation was log2 transformed and summarized to protein level by aggregating all PSMs from the same primary Uniprot reference, and systematic variation between the treatments was normalized at each temperature. A thermal titration curve was fitted from experimental data for each protein and for each treatment condition using Self-Starting Nls Four-Parameter Logistic Model from stats v3.6.2 in R. Melting point was calculated at the 50% between intensity at the lowest temperature and intensity at the highest temperature. A quality score is calculated for each protein by evaluating R squares, curve slopes and similarity in slopes between the two fitted curves. For the PISA experiment, quantitative data from each replicate of combined temperatures were used to calculate fold changes and p values between the treatment conditions. Quantified PSMs were normalized based on global median abundance among all PSMs, and then summarized to the protein level using statistical package MSstats_3.14.1 ([Choi et al., 2014]). Fold changes and p values were calculated between pre-defined treatment groups by the MSstats package. For the photoaffinity probe based pull-down study, pairwise differential analysis was applied to treatment groups. TMT abundance of all PSMs was aggregated to their respective proteins. Ratios between each treatment group were calculated based on their mean protein abundance from replicates and a Student’s t test was applied to each pair to calculate p values. […]
# [3] = biological target: T2, 14-3-3 protein eta (YWHAH) (Homo sapiens, UniProt Q04917); assay: PISA of neutrophil lysates (Data S2); assay type: binding; details: Comparison NA11_MidT-DMSO_MidT
# T2 construct: endogenous in cells; host or cells: human neutrophil lysate
# Experimental: as §1, §2, §3
# [4] = biological target: T3, 14-3-3 protein gamma (YWHAG) (Homo sapiens, UniProt P61981); assay: PISA of neutrophil lysates (Data S2); assay type: binding; details: Comparison NA11_MidT-DMSO_MidT
# T3 construct: endogenous in cells; host or cells: human neutrophil lysate
# Experimental: as §1, §2, §3
# [5] = biological target: T4, 14-3-3 protein epsilon (YWHAE) (Homo sapiens, UniProt P62258); assay: PISA of neutrophil lysates (Data S2); assay type: binding; details: Comparison NA11_MidT-DMSO_MidT
# T4 construct: endogenous in cells; host or cells: human blood leukocytes, labelled live
# Experimental: as §1, §2, §3
# [6] = biological target: T5, 14-3-3 protein beta/alpha (YWHAB) (Homo sapiens, UniProt P31946); assay: PISA of neutrophil lysates (Data S2); assay type: binding; details: Comparison NA11_MidT-DMSO_MidT
# T5 construct: endogenous in cells; host or cells: human blood leukocytes, labelled live
# Experimental: as §1, §2, §3
# [7] = tested on: PMNs; assay: NADPH/NADP+ detection assay in neutrophils; assay type: cell-based, human
# Experimental: The ratio of NADPH/NADP^+ (or NADH/NAD^+) was calculated after measuring the individual concentrations of NADPH and NADP^+ (or NADH and NAD^+) with NADP/NADPH-Glo (or NAD/NADH-Glo) assays (Promega). […] Cells were lysed in plates by addition of 1% dodecyltrimethylammonium bromide (DTAB). To measure NADPH, half of the samples was heated at 60 °C for 30 min. The other half was treated with HCl before heating to 60°C, to measure NADP^+. All samples were neutralized before adding luciferase detection reagent, then incubated for 1 h with gentle shaking. Luminescence was recorded on a plate reader (Envision).
# T4 sequence (P62258 whole entry): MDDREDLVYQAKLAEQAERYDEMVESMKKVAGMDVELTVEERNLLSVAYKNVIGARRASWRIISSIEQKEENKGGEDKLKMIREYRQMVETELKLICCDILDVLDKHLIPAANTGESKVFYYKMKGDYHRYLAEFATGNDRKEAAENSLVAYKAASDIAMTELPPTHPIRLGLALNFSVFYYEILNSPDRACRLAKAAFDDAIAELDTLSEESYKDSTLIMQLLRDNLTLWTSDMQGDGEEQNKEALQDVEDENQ
# T5 sequence (P31946 whole entry): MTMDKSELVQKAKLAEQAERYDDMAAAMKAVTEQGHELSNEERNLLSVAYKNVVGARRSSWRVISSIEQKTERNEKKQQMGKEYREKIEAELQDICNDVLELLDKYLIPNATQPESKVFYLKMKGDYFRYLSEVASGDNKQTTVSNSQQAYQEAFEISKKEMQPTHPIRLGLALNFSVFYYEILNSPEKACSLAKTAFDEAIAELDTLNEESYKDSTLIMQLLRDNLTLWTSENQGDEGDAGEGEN
# T2 sequence (Q04917 whole entry): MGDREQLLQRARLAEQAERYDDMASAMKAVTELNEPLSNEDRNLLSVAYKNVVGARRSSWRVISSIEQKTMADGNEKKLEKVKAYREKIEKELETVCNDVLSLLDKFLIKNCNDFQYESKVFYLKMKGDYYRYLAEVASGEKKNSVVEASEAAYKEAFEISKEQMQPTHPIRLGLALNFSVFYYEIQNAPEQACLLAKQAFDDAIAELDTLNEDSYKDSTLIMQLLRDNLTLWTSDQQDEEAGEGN
# T3 sequence (P61981 whole entry): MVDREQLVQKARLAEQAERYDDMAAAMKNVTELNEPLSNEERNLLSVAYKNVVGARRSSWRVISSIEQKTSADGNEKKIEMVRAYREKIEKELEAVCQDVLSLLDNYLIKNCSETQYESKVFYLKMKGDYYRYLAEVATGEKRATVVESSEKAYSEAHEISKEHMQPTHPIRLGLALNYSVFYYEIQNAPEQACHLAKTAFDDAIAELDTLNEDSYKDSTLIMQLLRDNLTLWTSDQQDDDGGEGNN
# T1 sequence (P27348 whole entry): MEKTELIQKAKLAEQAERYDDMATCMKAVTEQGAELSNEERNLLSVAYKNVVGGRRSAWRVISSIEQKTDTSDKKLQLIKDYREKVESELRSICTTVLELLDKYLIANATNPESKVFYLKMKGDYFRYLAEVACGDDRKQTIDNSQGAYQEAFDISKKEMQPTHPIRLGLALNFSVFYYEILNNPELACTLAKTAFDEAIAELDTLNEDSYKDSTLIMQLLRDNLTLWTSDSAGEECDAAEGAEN
Compound,GSDMD-dependent pyroptosis (LDH release) [1],log2FC [2],log2FC [3],log2FC [4],log2FC [5],log2FC [6],"NADPH replenishment / turnover after apocynin ([7]; PMA 30 min, then apocynin)",NADPH/NADP+ ratio in resting cells ([7]; resting neutrophils)
"COc1ccccc1-c1cc2n(n1)Cc1ccc(NC(C)=O)cc1OC2 [LDC7559, reference compound]",did not alter GSDMD-dependent pyroptosis,,,,,,,
CC(=O)Nc1ccc2c(c1)OCc1cc(-c3ccccc3C#CCCCO)nn1C2 [NA-11],,-0.18,0.0948,0.0136,-0.04,-0.07,slower to replenish NADPH,did not change the NADPH/NADP^+ ratio
